The test system of one test is Primary Pathogens. The test can be described thus: Sensitivity of primary pathogens to antibiotics, standard serial microbroth-dilution method (Example 23). In kind it is cell-based. To be noted: for MIC: Pseudomonas aeruginosa. The text has this: We used sputum from patients with different pulmonary infections. Pure bacterial culture of each microorganisms was obtained by routine microbiological methods, bacterial identification was done by MALDI-TOF analysis, microbial diversity of biosample was done by metagenomic analysis (16S RNA sequencing).
Primary pathogen was selected as a leading pathogen in each infection case, based on consultation with an independent doctors who have received a description of the clinical picture, microbiology and microbiology analyses. Sensitivity of PP to antibiotics was evaluated using a standard serial microbroth-dilution method.
On the technique in general: In broth dilution the organism is exposed to a series of concentrations in liquid medium.

The subject of the next test is PP in sputum biosamples. Description: Presence of PP growth in wells with different tobramycin concentrations. Further details: key: “+”—presence of bacterial growth, antibiotic is ineffective; “−”—absence of bacterial growth, antibiotic is effective. In kind it is cell-based. As for the experimental part:
Next, biosamples were plated to the wells of 48 well plate filled with Columbia +Pept Meat Agar supplemented with tobramycin taken at different concentrations (we have taken MIC as equal to Cmax) and presence of PP growth was evaluated in each well in 24 h of growth.

Test [1] has as its system PP. Description: Neutropenic mouse pneumonia infected with biosamples, tobramycin treatment, decrease of PP count by 3log10 over 48 hours. It counts as in vivo, C57BL/6 mice. Conditions: efficacy = decrease of PP count by 3log10 over 48 hours. The procedure: Next, using the same biosamples we infected mice modulating pneumonia. For that, adult C57BL/6 mice were rendered neutropenic by injecting cyclophosphamide subcutaneously 4 days before infection (150 mg/kg of body weight), 1 day before infection (100 mg/kg), and 1 day after infection (100 mg/kg). Mice were anesthetized with 2% isoflurane and orally instilled with biosample disluted in PBS. Briefly, nares were blocked, and mice aspirated 50 μL of the biosample into the lungs while being held vertically for 60 s. MIX was taken as a Cmax.
30 animals were used (n=10 per group) and were treated with different concentrations of tobramycin according to the results obtained by proposed method from 3 different biosamples.
(§1) Efficacy was evaluated by the decrease of PP count by 3log10 over 48 hours.

Test [2] has as its system PP. The test can be described thus: Animals treated with amoxicillin regimens, decrease of PP count by 3log10 over 48 hours. In kind it is in vivo. Conditions: efficacy = decrease of PP count by 3log10 over 48 hours. As for the experimental part:
25 animals were used (n=5 per group) and were treated with different concentrations of Amoxicillin according to the results obtained by proposed method from 3 different biosamples.
as §1

A further test has as its system Gram negative rods. Description: Supplements added to culture media to control bacterial diversity (microscopy, 18 h). To be noted: 18 h of cultivation. On the set-up: key: “+++” marks the diversity of certain bacterial type in control; “+++++” indicates an increased diversity of bacterial type. In kind it is cell-based. An excerpt: (§2) We next studied, could we regulate bacterial diversity grown from the bio samples with different compounds including transcriptase inhibitors, protease inhibitors, recombinase/integrase inhibitors, nucleases.

Test [3] relates to Gram positive non-sporeforming bacteria. The test is described as above. It counts as cell-based. On the set-up: key: “+++” marks the diversity of certain bacterial type in control; “+++++” indicates an increased diversity of bacterial type. Conditions: 18 h of cultivation.
Source text: as §2

For test [4], the system named is Gram positive sporeforming bacteria. Described as above. It counts as cell-based. On the set-up: key: “+++” marks the diversity of certain bacterial type in control; “+++++” indicates an increased diversity of bacterial type. Conditions: 18 h of cultivation.
Source text: as §2

The structures appear in SMILES notation. In brackets after ≈: the same amount, converted by molar mass.

For orientation: MIC means the lowest concentration found to suppress growth. For the compound `NC[C@H]1O[C@H](O[C@H]2[C@H](O)[C@@H](O[C@H]3O[C@H](CO)[C@@H](O)[C@H](N)[C@H]3O)[C@H](N)C[C@@H]2N)[C@H](N)C[C@@H]1O` [Tobramycin], the “Sensitivity (CLSI interpretation)” value in the test with Primary Pathogens (Biosample 1, P. aeruginosa) is on record as “S”; in the test on Primary Pathogens (Biosample 2, P. aeruginosa), “I”; in the test with Primary Pathogens (Biosample 3, P. aeruginosa), “I”. For the same compound, the MIC against Primary Pathogens (Biosample 1, P. aeruginosa) was found to be 2 µg/mL (≈ 4.28 µM); against Primary Pathogens (Biosample 2, P. aeruginosa), 8 µg/mL (≈ 17.1 µM); with Primary Pathogens (Biosample 3, P. aeruginosa), 8 µg/mL (≈ 17.1 µM). The “Presence of bacterial growth in the wells” value (shortened to “Presence of bacterial growth”) with PP in sputum biosamples (Biosample 1 (PP P. aeruginosa), 1/10 Cmax, 24 h) is recorded as “−”; in the test on PP in sputum biosamples (Biosample 1 (PP P. aeruginosa), 1/100 Cmax, 24 h), “+”; in the test on PP in sputum biosamples (Biosample 1 (PP P. aeruginosa), Cmax × 2, 24 h), “−”; in the test on PP in sputum biosamples (Biosample 1 (PP P. aeruginosa), Cmax × 10, 24 h), “−”; in the test with PP in sputum biosamples (Biosample 1 (PP P. aeruginosa), Cmax, 24 h) it was “−”; in the test with PP in sputum biosamples (Biosample 1 (PP P. aeruginosa), ¼ Cmax, 24 h), “−”. Moreover, the “Presence of bacterial growth” value is “−” with PP in sputum biosamples (Biosample 1 (PP P. aeruginosa), ½ Cmax, 24 h); “+” in the test with PP in sputum biosamples (Biosample 2 (PP P. aeruginosa), 1/10 Cmax, 24 h); “+” with PP in sputum biosamples (Biosample 2 (PP P. aeruginosa), 1/100 Cmax, 24 h); “−” in the test on PP in sputum biosamples (Biosample 2 (PP P. aeruginosa), Cmax × 2, 24 h); “−” in the test with PP in sputum biosamples (Biosample 2 (PP P. aeruginosa), Cmax × 10, 24 h); “−” in the test on PP in sputum biosamples (Biosample 2 (PP P. aeruginosa), Cmax, 24 h). The “Presence of bacterial growth” value with PP in sputum biosamples (Biosample 2 (PP P. aeruginosa), ¼ Cmax, 24 h) is “+”; with PP in sputum biosamples (Biosample 2 (PP P. aeruginosa), ½ Cmax, 24 h), “+”; with PP in sputum biosamples (Biosample 3 (PP P. aeruginosa), 1/10 Cmax, 24 h) it was “+”; in the test on PP in sputum biosamples (Biosample 3 (PP P. aeruginosa), 1/100 Cmax, 24 h), “+”; in the test with PP in sputum biosamples (Biosample 3 (PP P. aeruginosa), Cmax × 2, 24 h) it was “−”; in the test on PP in sputum biosamples (Biosample 3 (PP P. aeruginosa), Cmax × 10, 24 h), “−”. Besides, the “Presence of bacterial growth” value was “−” in the test on PP in sputum biosamples (Biosample 3 (PP P. aeruginosa), Cmax, 24 h); “−” in the test on PP in sputum biosamples (Biosample 3 (PP P. aeruginosa), ¼ Cmax, 24 h); “−” in the test with PP in sputum biosamples (Biosample 3 (PP P. aeruginosa), ½ Cmax, 24 h). For the same compound, the “Number of animals to whom therapy was effective/number of animals per group” value in the test with PP [1] (Group 1a, biosample #1, Cmax 1/10 (lowest EFFECTIVE)) was 5/5; in the test with PP [1] (Group 1b, biosample #1, Cmax 1/100 (highest INEFFECTIVE)), 0/5; in the test with PP [1] (Group 2a, biosample #2, Cmax 1/1 (lowest EFFECTIVE)), 5/5; with PP [1] (Group 2b, biosample #2, Cmax 1/10 (highest INEFFECTIVE)), 0/5; in the test with PP [1] (Group 3a, biosample #3, Cmax 1/4 (lowest EFFECTIVE)) it was 5/5; in the test with PP [1] (Group 3b, biosample #3, Cmax 1/10 (highest INEFFECTIVE)), 0/5. The “Number of animals to whom therapy was effective/number of animals per group” value in the test with PP [2] (Group 1a, biosample #1, QID (lowest EFFECTIVE)) was 5/5; with PP [2] (Group 2a, biosample #2, TID (lowest EFFECTIVE)), 5/5; in the test on PP [2] (Group 2b, biosample #2, BID (highest INEFFECTIVE)), 0/5; in the test on PP [2] (Group 3a, biosample #3, BID (lowest EFFECTIVE)) it was 5/5; with PP [2] (Group 3b, biosample #3, QID (highest INEFFECTIVE)), 0/5.

Turning to `C[C@H](Cn1cnc2c(N)ncnc21)OCP(=O)(O)O` [Group 8], in the test with Gram negative rods (compound at 100 ug/mL), the “diversity of Gram negative rods” value is given as “+++”. Moreover, in test [3] (compound at 100 ug/mL), the “diversity of Gram positive non-sporeforming bacteria” value is given as “+++++”. Besides, the “diversity of Gram positive sporeforming bacteria” value in test [4] (compound at 100 ug/mL) was “+++”.

Take `Nc1nc([O-])c2ncn(COCCO)c2n1.[Na+]` [Group 12]: the “diversity of Gram negative rods” value in the test with Gram negative rods (compound at 100 ug/mL) is given as “+++”. Besides, the “diversity of Gram positive non-sporeforming bacteria” value in test [3] (compound at 100 ug/mL) is recorded as “+++++”. Moreover, in test [4] (compound at 100 ug/mL), the “diversity of Gram positive sporeforming bacteria” value is listed as “+++”.

In the case of `Nc1nc([O-])c2ncn(COCCO)c2n1.[Na+]` [Group 11], in the test with Gram negative rods (compound at 0.5 ug/mL), the “diversity of Gram negative rods” value is reported as “+++”. Besides, in test [3] (compound at 0.5 ug/mL), the “diversity of Gram positive non-sporeforming bacteria” value is reported as “+++++”. Further, in test [4] (compound at 0.5 ug/mL), the “diversity of Gram positive sporeforming bacteria” value is listed as “+++”.

With `C[C@H](Cn1cnc2c(N)ncnc21)OCP(=O)(O)O` [Group 7], in the test on Gram negative rods (compound at 0.5 ug/mL), the “diversity of Gram negative rods” value was “+++”. For the same compound, the “diversity of Gram positive non-sporeforming bacteria” value in test [3] (compound at 0.5 ug/mL) is listed as “+++++”. Further, the “diversity of Gram positive sporeforming bacteria” value in test [4] (compound at 0.5 ug/mL) is “+++”.

Values taken from US20240182945A1, “PRODUCTS FOR REGULATION OF EUKARYOTIC AND MICROBIAL CELLS GROWTH” (priority 2021, published 2024).
